Like-named read-outs stand apart in the source and are kept apart here.
Target: T1, human GR (Homo sapiens, UniProt P04150)
T1 sequence (P04150 1-777): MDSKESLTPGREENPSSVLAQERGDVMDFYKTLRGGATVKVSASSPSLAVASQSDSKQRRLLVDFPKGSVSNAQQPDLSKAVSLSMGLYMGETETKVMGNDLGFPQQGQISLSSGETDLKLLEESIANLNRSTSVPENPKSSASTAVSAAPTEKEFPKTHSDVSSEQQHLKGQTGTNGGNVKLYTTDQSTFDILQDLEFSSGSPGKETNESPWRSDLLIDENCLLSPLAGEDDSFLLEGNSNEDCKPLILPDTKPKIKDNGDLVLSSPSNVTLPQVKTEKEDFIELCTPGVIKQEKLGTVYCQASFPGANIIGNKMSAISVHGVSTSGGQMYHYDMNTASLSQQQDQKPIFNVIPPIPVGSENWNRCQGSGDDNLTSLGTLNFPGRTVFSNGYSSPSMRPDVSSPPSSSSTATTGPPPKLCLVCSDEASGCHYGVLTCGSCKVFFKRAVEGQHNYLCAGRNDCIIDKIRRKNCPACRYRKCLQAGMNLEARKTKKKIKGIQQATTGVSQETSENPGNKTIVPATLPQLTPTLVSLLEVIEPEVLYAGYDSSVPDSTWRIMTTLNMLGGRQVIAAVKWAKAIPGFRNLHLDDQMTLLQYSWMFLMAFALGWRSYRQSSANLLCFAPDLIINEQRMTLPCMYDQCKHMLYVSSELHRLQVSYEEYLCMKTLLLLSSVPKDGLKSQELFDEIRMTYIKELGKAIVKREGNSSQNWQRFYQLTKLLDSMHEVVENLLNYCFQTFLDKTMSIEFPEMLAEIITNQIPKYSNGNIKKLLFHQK
Test: Trans-Activation Modulation of Glucocorticoid Receptor (GRAMMER), MMTV-LUC reporter gene
Format: cell-based
Set-up: endogenous in cells
Details: for Emax: A549; for EC50: A549 cells, IP = inflection point
Text: Trans-Activation Modulation of Glucocorticoid Receptor (GRAMMER)
This assay assesses the ability of test compounds to control transcription from the MMTV-LUC reporter gene in lung adenocarcinoma A549 cells or HeLa cells, a human […] cell line that naturally expresses the human GR. The assay measures induction of a modified MMTV LTR/promoter linked to the LUC reporter gene.
The routine transient assay consists of plating 7,000-25,000 cells/well of a white, clear-bottom 96-well plate. Alternatively, 384-well plates can be used at a cell concentration of 10,000/well. The media that the cells are plated in is “exponential growth medium” which consists of phenol red-free RPMI1640 containing 10% FBS, 4 mM L-glutamine, 20 mM HEPES, 10 ug/mL human insulin, and 20 ug/mL gentamicin. Incubator conditions are 37° C. and 5% CO2. The transfection is done in batch mode. The cells are trypsinized and counted to the right cell number in the proper amount of fresh media. It is then gently mixed with the FuGene6/DNA mix and plated onto the 96 or 384-well plate, all the wells receive 100 uL or 40 uL, respectively, of medium+lipid/DNA complex then incubated 37° C. overnight. The transfection cocktail consists of serum-free OptiMEM, FuGene6 reagent and DNA. The manufacturer's (Roche Biochemical) protocol for cocktail setup is as follows: The lipid to DNA ratio is approximately 2.5:1 and the incubation time is 20 min at room temperature. Sixteen to 24 hours after transfection, the cells are treated with dexamethasone to a final concentration of 10 nM as well as the compound of interest, such that final DMSO (vehicle) concentration is equal to or less than 1%. Each plate also contains samples that are treated with 10 nM dexamethasone alone, which is used as the 100% activity control. The cells are exposed to the compounds for 24 hours. After 24 hours, the cells are lysed by a Promega cell culture lysis buffer for approximately 30 min and then the luciferase activity in the extracts is assayed in the 96-well format luminometer. In 384-well format, Steady-Glo (Promega) or Steady-Lite (PerkinElmer) can be used by adding an equal volume of reagent to the media present in each well. Activity induced by 10 nM dexamethasone alone is set at 100% activity. Antagonist activity is calculated by determining the decrease in dexamethasone-induced activity in response to compound treatment relative to samples that were treated with dexamethasone alone. […] This transactivation assay can be performed in an agonist and antagonist mode to identify these different activities. […]

[1] = read-out: Transactivation A549 Cells GRAMMER Emax (%)
[2] = Table 1, read-out: Transactivation A549 Cells GRAMMER IP
[3] = read-out: Transactiviation A549 Cells GRAMMER Emax (%)
[4] = Table 2, read-out: Transactiviation A549 Cells GRAMMER IP

Row | SMILES | Emax [1] | EC50 [2] | Emax [3] | EC50 [4]
1 | CC1(NC(=O)c2ccccc2CC[C@]2(O)CCC3=Cc4c(cnn4-c4ccc(F)cc4)C[C@@]32C)CC1 [Example 28, 2-{2-[(4αS,5R)-1-(4-fluorophenyl)-5-hydroxy-4α-methyl-1,4,4α,5,6,7-hexahydrocyclopenta[f]indazol-5-yl]ethyl}-N-(1-methylcyclopropyl)benzamide] | 28% | 0.048 µM | – | –
2 | CC(C)CNC(=O)c1ccccc1CC[C@]1(O)CCC2=Cc3c(cnn3-c3ccc(F)cc3)C[C@@]21C [Example 29, 2-{2-[(4αS,5R)-1-(4-fluorophenyl)-5-hydroxy-4α-methyl-1,4,4α,5,6,7-hexahydrocyclopenta[f]indazol-5-yl]ethyl}-N-isobutylbenzamide] | 24% | 0.095 µM | – | –
3 | CC(CNC(=O)c1ccccc1CC[C@]1(O)CCC2=Cc3c(cnn3-c3ccc(F)cc3)C[C@@]21C)C(F)(F)F (stereo partly drawn) [Example 31, 2-{2-[(4αS,5R)-1-(4-fluorophenyl)-5-hydroxy-4α-methyl-1,4,4α,5,6,7-hexahydrocyclopenta[f]indazol-5-yl]ethyl}-N-(3,3,3-trifluoro-2-methylpropyl)benzamide] | 9% | 0.093 µM | – | –
4 | C=CCNC(=O)c1ccccc1CC[C@]1(O)CCC2=Cc3c(cnn3-c3ccc(F)cc3)C[C@@]21C [Example 33, N-allyl-2-{2-[(4αS,5R)-1-(4-fluorophenyl)-5-hydroxy-4α-methyl-1,4,4α,5,6,7-hexahydrocyclopenta[f]indazol-5-yl]ethyl}benzamide] | 37% | 0.062 µM | – | –
5 | CC1(NC(=O)c2ccccc2CC[C@]2(O)CCC3=Cc4c(cnn4-c4ccccc4)C[C@@]32C)CC1 [Example 34, 2-{2-[(4αS,5R)-5-hydroxy-4α-methyl-1-phenyl-1,4,4α,5,6,7-hexahydrocyclopenta[f]indazol-5-yl]ethyl}-N-(1-methylcyclopropyl)benzamide] | 13% | 0.128 µM | – | –
6 | C[C@]12Cc3cnn(-c4ccc(F)cc4)c3C=C1CC[C@@]2(O)CCc1ccccc1C(=O)NCC1CC1 [Example 37, N-(cyclopropylmethyl)-2-{2-[(4αS,5R)-1-(4-fluorophenyl)-5-hydroxy-4α-methyl-1,4,4α,5,6,7-hexahydrocyclopenta[r]indazol-5-yl]ethyl}benzamide] | 57% | 0.065 µM | – | –
7 | C[C@]12Cc3cnn(-c4ccc(F)cc4)c3C=C1CC[C@@]2(O)CCc1ccccc1Cl [Example 40 WO 2004/075840 A2, reference compound] | – | – | 98% | 0.162 µM
8 | C[C@]12Cc3cnn(-c4ccc(F)cc4)c3C=C1CC[C@@]2(O)CCc1ccccc1C(=O)N1CCC1 [Example 40, (4αS,5R)-5-{2-[2-(azetidin-1-ylcarbonyl)phenyl]ethyl}-1-(4-fluorophenyl)-4α-methyl-1,4,4α,5,6,7-hexahydrocyclopenta[f]indazol-5-ol] | 46% | 0.231 µM | – | –
9 | C[C@]12Cc3cnn(-c4ccc(F)cc4)c3C=C1CCC[C@@]2(O)CCc1ccccc1Cl [Example 41 WO 2004/075840 A2, reference compound] | – | – | 92% | 0.123 µM
10 | C[C@]12Cc3cnn(-c4ccccc4)c3C=C1CC[C@@]2(O)CCc1ccccc1C(=O)NC1CC1 [Example 42, N-cyclopropyl-2-{2-[(4αS,5R)-5-hydroxy-4α-methyl-1-phenyl-1,4,4α,5,6,7-hexahydrocyclopenta[f]indazol-5-yl]ethyl}benzamide] | 51% | 0.074 µM | – | –
11 | C[C@]12Cc3cnn(-c4ccccc4)c3C=C1CC[C@@]2(O)CCc1ccccc1C(N)=O [Example 43, 2-{2-[(4αS,5R)-5-hydroxy-4α-methyl-1-phenyl-1,4,4α,5,6,7-hexahydrocyclopenta[f]indazol-5-yl]ethyl}benzamide] | 59% | 0.111 µM | – | –
12 | C[C@H](CNC(=O)c1ccccc1CC[C@]1(O)CCC2=Cc3c(cnn3-c3ccc(F)cc3)C[C@@]21C)C(F)(F)F [Example 45, 2-{2-[(4αS,5R)-1-(4-fluorophenyl)-5-hydroxy-4α-methyl-1,4,4α,5,6,7-hexahydrocyclopenta[f]indazol-5-yl]ethyl}-N-[(2R)-3,3,3-trifluoro-2-methylpropyl]benzamide] | 18% | 0.183 µM | – | –
13 | C[C@]12Cc3cnn(-c4ccc(F)cc4)c3C=C1CC[C@@]2(O)CCc1ccc(F)cc1 [Example 46 WO 2004/075840 A2, reference compound] | – | – | 26% | 0.571 µM
14 | C[C@]12Cc3cnn(-c4ccc(F)cc4)c3C=C1CC[C@@]2(O)CCc1ccccc1C(=O)N1CCCCC1 [Example 46, (4αS,5R)-1-(4-fluorophenyl)-4α-methyl-5-{2-[2-(piperidin-1-ylcarbonyl)phenyl]ethyl}-1,4,4α,5,6,7-hexahydrocyclopenta[f]indazol-5-ol] | 54% | 0.176 µM | – | –

More lines, now with the values ahead:

Row | Emax [1] | EC50 [2] | Emax [3] | EC50 [4] | SMILES
15 | 29% | 0.081 µM | – | – | CCCNC(=O)c1ccccc1CC[C@]1(O)CCC2=Cc3c(cnn3-c3ccc(F)cc3)C[C@@]21C [Example 30, 2-{2-[(4αS,5R)-1-(4-fluorophenyl)-5-hydroxy-4α-methyl-1,4,4α,5,6,7-hexahydrocyclopenta[f]indazol-5-yl]ethyl}-N-propylbenzamide]
16 | 13% | 0.134 µM | – | – | C=C(C)CNC(=O)c1ccccc1CC[C@]1(O)CCC2=Cc3c(cnn3-c3ccc(F)cc3)C[C@@]21C [Example 32, 2-{2-[(4αS,5R)-1-(4-fluorophenyl)-5-hydroxy-4α-methyl-1,4,4α,5,6,7-hexahydrocyclopenta[f]indazol-5-yl]ethyl}-N-(2-methylprop-2-en-1-yl)benzamide]
17 | 48% | 0.06 µM | – | – | CC(C)NC(=O)c1ccccc1CC[C@]1(O)CCC2=Cc3c(cnn3-c3ccc(F)cc3)C[C@@]21C [Example 35, 2-{2-[(4αS,5R)-1-(4-fluorophenyl)-5-hydroxy-4α-methyl-1,4,4α,5,6,7-hexahydrocyclopenta[f]indazol-5-yl]ethyl}-N-isopropylbenzamide]
18 | 15% | 0.091 µM | – | – | CC(CNC(=O)c1c(F)cccc1CC[C@]1(O)CCC2=Cc3c(cnn3-c3ccc(F)cc3)C[C@@]21C)C(F)(F)F (stereo partly drawn) [Example 38, 2-fluoro-6-{2-[(4αS,5R)-1-(4-fluorophenyl)-5-hydroxy-4α-methyl-1,4,4α,5,6,7-hexahydrocyclopenta[f]indazol-5-yl]ethyl}-N-(3,3,3-trifluoro-2-methylpropyl)benzamide]
19 | 18% | 0.046 µM | – | – | COC(=O)C(C)(C)NC(=O)c1c(F)cccc1CC[C@]1(O)CCC2=Cc3c(cnn3-c3ccc(F)cc3)C[C@@]21C [Example 41, methyl N-(2-fluoro-6-{2-[(4αS,5R)-1-(4-fluorophenyl)-5-hydroxy-4α-methyl-1,4,4α,5,6,7-hexahydrocyclopenta[f]indazol-5-yl]ethyl}benzoyl)-2-methylalaninate]
20 | 24% | 0.095 µM | – | – | C=C(C)CNC(=O)c1c(F)cccc1CC[C@]1(O)CCC2=Cc3c(cnn3-c3ccc(F)cc3)C[C@@]21C [Example 44, 2-fluoro-6-{2-[(4αS,5R)-1-(4-fluorophenyl)-5-hydroxy-4α-methyl-1,4,4α,5,6,7-hexahydrocyclopenta[f]indazol-5-yl]ethyl}-N-(2-methylprop-2-en-1-yl)benzamide]

— patent publication US8119681B2, “2-[1-phenyl-5-hydroxy or methoxy-4alpha-methyl-hexahydrocyclopenta [ƒ]indazole-5-YL]ethyl phenyl derivatives as glucocorticoid receptor ligands” (Merck Sharp & Dohme Corp., priority 2006, dated 2012)
